Experiment: 153Gd remaining in the rat 7 days after i.v. injection of GdDTPA/dimeglumine
Assay type: in vivo
Details: rats, one week after i.v. injection of GdDTPA; 10% calcium trisodium DTPA added to the contrast medium, versus no additive

SMILES: O=C([O-])CN(CCN(CC(=O)[O-])CC(=O)[O-])CCN(CC(=O)[O-])CC(=O)[O-].[Ca+2].[Na+].[Na+].[Na+] [calcium trisodium DTPA, Calcium-trisodium salt of DTPA]
- reduction of the gadolinium concentration in the bones: about 45%
- reduction of the portion of gadolinium remaining in the bodies: greater than 30%

From US20030206858A1, “Metal complex-containing pharmaceutical agents” (Schering AG, priority 1986, published 2003)
